How the values were obtained:
[1] = target: T1, human dopamine D3 receptors (Homo sapiens, UniProt P35462); assay: Dopamine D3 receptor binding, [125I]-iodosulpride displacement, HEK-293 membranes; conditions: for Ki(D2)*/Ki(D3)*: selectivity, ratio of receptor binding constants D2L vs D3; for Ki: receptor binding constant, membranes of HEK-293 cells, 0.1 nM [125I]-iodosulpride, 25° C., 60 minutes
T1 construct: expressed in transfected cells
Description: (§1) The substance to be tested was either dissolved in methanol/Chremophor® (BASF-AG) or in dimethyl sulfoxide and then diluted with water to the desired concentration.
(§2) Each assay mixture was run in triplicate.
The incubation buffer contained 50 mM tris, 120 mM NaCl, 5 mM KCl, 2 mM CaCl2, 2 mM MgCl2 and 0.1% bovine serum albumin, 10 μM […] and 0.1% ascorbic acid (prepared fresh daily). The buffer was adjusted to pH 7.4 with HCl.
(§3) After having been incubated at 25° C. for 60 minutes, the assay mixtures were filtered through a Whatman GF/B glass fiber filter under vacuum using a cell collecting device. The filters were transferred to scintillation viols using a filter transfer system. After 4 ml of Ultima Gold® (Packard) have been added, the samples were shaken for one hour and the radioactivity was then counted in a Beta-Counter (Packard, Tricarb 2000 or 2200CA). The cpm values were converted into dpm using a standard quench series and the program belonging to the instrument.
(§4) The inhibition curves were analyzed by means of iterative nonlinear regression analysis using the Statistical Analysis System (SAS) which is similar to the “LIGAND” program described by Munson and Rodbard.
(§5) The results of the receptor binding studies are expressed as receptor binding constants Ki(D2) and Ki(D3), respectively, as herein before described, and given in table 1.

[2] = target: T2, human dopamine D2L receptors (long isoform) (Homo sapiens, UniProt P14416); assay: Dopamine D2L receptor binding, [125I]iodospiperone displacement, HEK-293 membranes; conditions: receptor binding constant; membranes of HEK-293 cells, 0.01 nM [125I]iodospiperone, 25° C., 60 minutes; read-out: Ki(D2)*
T2 construct: expressed in transfected cells
T2 sequence (P14416 whole entry, canonical isoform): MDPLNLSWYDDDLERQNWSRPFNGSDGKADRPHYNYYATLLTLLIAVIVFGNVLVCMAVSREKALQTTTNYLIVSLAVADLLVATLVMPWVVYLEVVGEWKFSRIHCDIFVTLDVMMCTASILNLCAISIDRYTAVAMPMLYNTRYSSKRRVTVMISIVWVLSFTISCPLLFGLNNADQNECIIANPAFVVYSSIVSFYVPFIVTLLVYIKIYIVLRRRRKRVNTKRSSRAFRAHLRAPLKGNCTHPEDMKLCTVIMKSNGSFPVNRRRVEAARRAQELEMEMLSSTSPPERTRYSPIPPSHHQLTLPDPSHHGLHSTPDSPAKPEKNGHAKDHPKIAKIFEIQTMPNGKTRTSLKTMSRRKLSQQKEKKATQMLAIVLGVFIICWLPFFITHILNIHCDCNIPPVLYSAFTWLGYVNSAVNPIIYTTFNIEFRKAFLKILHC
Description: as §1, §2
The incubation buffer contained 50 mM tris, 120 mM NaCl, 5 mM KCl, 2 mM CaCl2, 2 mM MgCl2 and 0.1% bovine serum albumin. The buffer was adjusted to pH 7.4 with HCl.
as §3, §4, §5

T1 sequence (P35462 whole entry): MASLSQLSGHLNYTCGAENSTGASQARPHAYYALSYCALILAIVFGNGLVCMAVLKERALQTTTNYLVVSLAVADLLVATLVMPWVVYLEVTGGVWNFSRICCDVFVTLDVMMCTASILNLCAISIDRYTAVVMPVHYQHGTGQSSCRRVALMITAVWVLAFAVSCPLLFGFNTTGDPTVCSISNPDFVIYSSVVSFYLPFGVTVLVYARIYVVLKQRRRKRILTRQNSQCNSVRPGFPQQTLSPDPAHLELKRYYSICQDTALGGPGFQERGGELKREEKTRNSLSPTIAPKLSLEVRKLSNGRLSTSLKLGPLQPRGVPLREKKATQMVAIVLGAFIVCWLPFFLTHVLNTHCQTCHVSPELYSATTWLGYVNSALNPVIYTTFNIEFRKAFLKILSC

| Compound | Ki(D2)*/Ki(D3)* [1] | Ki [1] | Ki [2] |
| --- | --- | --- | --- |
| CCCN1C[C@@H]2C[C@@H](c3ccc(NS(=O)(=O)c4ccc(N5CCCC5)cc4)cc3)[C@@H]2C1 [Example 10, N-[4-((1R,5S,6R)-3-Propyl-3-aza-bicyclo[3.2.0]hept-6-yl)-phenyl]-4-pyrrolidin-1-yl-benzenesulfonamide] | 16 | 1.98 nM | 32 nM |
| CCCN1C[C@@H]2C[C@@H](c3ccc(NS(=O)(=O)c4ccc(N5CCC[C@@H]5COC)cc4)cc3)[C@@H]2C1 [Example 9, 4-((R)-2-Methoxymethyl-pyrrolidin-1-yl)-N-[4-((1R,5S,6R)-3-propyl-3-azabicyclo[3.2.0]hept-6-yl)-phenyl]-benzenesulfonamide] | 13 | 4.08 nM | 54.8 nM |
| CCCN1C[C@@H]2C[C@@H](c3ccc(NS(=O)(=O)c4ccc(OC(F)(F)F)cc4)cc3)[C@@H]2C1 [Example 4, N-[4-((1R,5S,6R)-3-Propyl-3-aza-bicyclo[3.2.0]hept-6-yl)-phenyl]-4-trifluoromethoxy-benzenesulfonamide] | 12 | 5.43 nM | 66.6 nM |
| CCCN1C[C@@H]2C[C@@H](c3ccc(NS(=O)(=O)c4ccc(C(C)C)cc4)cc3)[C@@H]2C1 [Example 1, 4-Isopropyl-N-[4-((1R,5S,6R)-3-propyl-3-aza-bicyclo[3.2.0]hept-6-yl)-phenyl]-benzenesulfonamide] | 28 | 0.47 nM | 12.9 nM |
| CCCN1C[C@@H]2C[C@@H](c3ccc(NS(=O)(=O)c4ccc(Br)cc4)cc3)[C@@H]2C1 [Example 7, 4-Bromo-N-[4-((1R,5S,6R)-3-propyl-3-aza-bicyclo[3.2.0]hept-6-yl)-phenyl]-benzenesulfonamide] | 24 | 1.31 nM | 31.7 nM |
| CCCN1C[C@@H]2C[C@@H](c3ccc(NS(=O)(=O)c4ccc(SC(F)(F)F)cc4)cc3)[C@@H]2C1 [Example 8, N-[4-((1R,5S,6R)-3-Propyl-3-aza-bicyclo[3.2.0]hept-6-yl)-phenyl]-4-trifluoromethylsulfanyl-benzenesulfonamide] | 17 | 1.81 nM | 30.2 nM |
| CCCN1C[C@@H]2C[C@@H](c3ccc(NS(=O)(=O)c4ccc(C(F)(F)F)cc4)cc3)[C@@H]2C1 [Example 5, N-[4-((1R,5S,6R)-3-Propyl-3-aza-bicyclo[3.2.0]hept-6-yl)-phenyl]-4-trifluoromethyl-benzenesulfonamide] | 23 | 3.15 nM | 72.1 nM |
| C=CCN1C[C@@H]2C[C@@H](c3ccc(NS(=O)(=O)c4ccc(OC(F)(F)F)cc4)cc3)[C@@H]2C1 [Example 6, N-[4-((1R,5S,6R)-3-Allyl-3-aza-bicyclo[3.2.0]hept-6-yl)-phenyl]-4-trifluoromethoxy-benzenesulfonamide] | 11 | 4.13 nM | 47 nM |
| CCCN1C[C@H]2C[C@H](c3ccc(NS(=O)(=O)c4ccc(C(C)C)cc4)cc3)[C@H]2C1 (relative stereo) [Example 3, 4-Isopropyl-N-[4-(exo-3-propyl-3-aza-bicyclo[3.2.0]hept-6-yl)-phenyl]-benzenesulfonamide] | 45 |  |  |

Other lines, results leading:

| Ki(D2)*/Ki(D3)* [1] | Ki [1] | Ki [2] | Compound |
| --- | --- | --- | --- |
| 8 |  |  | CCCN1C[C@H]2C[C@H](c3ccc(NS(=O)(=O)c4ccc(C(C)C)cc4)cc3)[C@H]2C1 [Example 14, 4-Isopropyl-N-[4-((1S,5R,6S)-3-propyl-3-aza-bicyclo[3.2.0]hept-6-yl)-phenyl]-benzenesulfonamide] |
| 8 | 4.46 nM | 37.6 nM | CCCN1C[C@@H]2C[C@@H](c3ccc(NS(=O)(=O)c4ccc(-c5ccco5)cc4)cc3)[C@@H]2C1 [Example 12, N-[4-((1R,5S,6R)-3-Propyl-3-aza-bicyclo[3.2.0]hept-6-yl)-phenyl]-4-furan-2-yl-benzenesulfonamide] |
| 26 | 2.19 nM | 56.7 nM | CCCN1C[C@@H]2C[C@@H](c3ccc(NS(=O)(=O)c4ccc(N5CCC5)cc4)cc3)[C@@H]2C1 [Example 11, 4-Azetidin-1-yl-N-[4-((1R,5S,6R)-3-propyl-3-aza-bicyclo[3.2.0]hept-6-yl)-phenyl]-benzenesulfonamide] |
| 10 | 1.32 nM | 13.1 nM | CCCN1C[C@@H]2C[C@@H](c3ccc(NS(=O)(=O)c4ccc(-c5cccs5)cc4)cc3)[C@@H]2C1 [Example 13, N-[4-((1R,5S,6R)-3-Propyl-3-aza-bicyclo[3.2.0]hept-6-yl)-phenyl]-4-thiophen-2-yl-benzenesulfonamide] |
| 39 | 5.3 nM | 208 nM | CCCN1C[C@H]2C[C@@H](c3ccc(NS(=O)(=O)c4ccc(C(C)C)cc4)cc3)[C@H]2C1 (relative stereo) [Example 16, endo-4-Isopropyl-N-[4-(3-propyl-3-aza-bicyclo[3.2.0]hept-6-yl)-phenyl]-benzenesulfonamide] |

— patent US7834048B2, “Azabicycloheptyl compounds suitable for treating disorders that respond to modulation of the dopamine D3 receptor” (Abbott GmbH & Co. KG, priority 2004, dated 2010)
